Measured values taken from ChEMBL document CHEMBL3507680, “University of Dundee, Gates Library screen for HepG2 cell viability”.

Experiment: Human HepG2 cell viability assay in 384 well format
Format: toxicity, cell-based
Parameters: dose 125 nL, time 70.5 hour; cytotoxicity at 70.5 h: concentration not given beside the values
Conditions: HepG2 cells, read-out: Inhibition

| SMILES | cytotoxicity at 70.5 h |
| --- | --- |
| COc1ccc(C(=O)NCc2ccc(C(=O)O)o2)cc1 | 27.3% |
| CC(=O)c1c(N(C)C)ccnc1C(F)(F)F | -6.51% |
| Cc1csc([C@@H]2C[C@@H]3CCN(C(=O)c4cccn4C)C[C@H]3O2)n1 | 9.1% |
| COCC1CN(Cc2cccnc2OC)Cc2cnn(C)c21 (centres undefined) | 6.07% |
| O=C1NCC[C@]12CN(Cc1ccco1)C[C@H]2c1ccccc1 | 1.63% |
| CC(C)NC(=O)c1cc2c(nc1N(C)C)CCN(S(=O)(=O)C1CC1)CC2 | 7.69% |
| O=C(CCn1cc(Cl)cn1)Nc1nncs1 | 15.8% |
| Cc1c(Cl)c(C(=O)NN2CCOCC2)nn1C | -8.4% |
| Cc1cc(C(F)(F)F)nn1C(C)C(=O)NN1CCN(C)CC1 (centres undefined) | 18.4% |
| Cc1nn(CC(=O)N2CCN(Cc3cnn(C)c3C)CC2)cc1Cl | -9.22% |
| Cc1cc(C(=O)N(C)Cc2cnn(C)c2C)n(C)n1 | 14% |
| Cc1c(Cl)c(C(F)(F)F)nn1C(C)C(=O)NC1CCN(C)CC1 (centres undefined) | 7.5% |
| Cn1nccc1CNC(=O)C1CCCCC1 | -2.81% |
| COC(=O)C1=C(C)N=C2SCC(=O)N2C1c1cnn(C)c1C (centres undefined) | -1.28% |
| NC(=O)c1ccn(COc2ccccc2Cl)n1 | -9.79% |
| Cc1cc(C(F)(F)F)nn1CC(C)C(=O)NC(C)C (centres undefined) | 19.9% |
| O=C(NC1CC1)c1ccn(COc2c(Cl)cccc2Cl)n1 | -14.6% |
| CC(Cn1cc(Br)cn1)C(=O)Nc1ccc(C(N)=O)cc1 (centres undefined) | 7.39% |
| CCOC(=O)N1CCN(C(=O)c2cc(-c3ccc(C)cc3)on2)CC1 | 5.24% |
| Cn1cc(S(=O)(=O)NCc2ccc(F)cc2)cn1 | -2.02% |
| CCS(=O)(=O)Nc1cnn(Cc2cccc(C)c2)c1 | -3.36% |
| CCn1ncc(S(=O)(=O)NC(C)c2cc(OC)ccc2OC)c1C (centres undefined) | 20.2% |
| Cc1nn(CCCNC(=O)C2CCN(S(C)(=O)=O)CC2)cc1Cl | 36.7% |

| SMILES | cytotoxicity at 70.5 h |
| --- | --- |
| CCn1cc(NS(=O)(=O)c2ccc(F)cc2)c(C(=O)NCC(C)C)n1 | -1.23% |
| O=C(c1ccc(COc2ccccc2Cl)o1)N1N=CCC1(O)C(F)(F)F (centres undefined) | -4.75% |
| O=C1CCC(=O)c2oc3ccc(Br)cc3c2N1 | -12.5% |
| O=C1CCC(=O)c2oc3ccc(Cl)cc3c2N1 | -14% |
| CC1=C(C(N)=O)C(c2cn(C)nc2C)N2C(=O)CSC2=N1 (centres undefined) | -9.38% |
| O=C(CCS(=O)(=O)c1ccccc1)NCCCn1cccn1 | -16.1% |
| CCn1cc(CN2CCN(C(=O)c3cc(C)c(C)s3)CC2)c(C)n1 | -10.4% |
| CCn1cc(CN2CCN(C(=O)c3cc(Br)cs3)CC2)c(C)n1 | 22.9% |
| Cc1nn(C)cc1-c1cc(-c2cn(C)nc2C)n(CC(=O)NC2CC2)n1 | -7.88% |
| O=C(c1cnn2c(-c3ccco3)ccnc12)N1CCCCCC1 | -8.53% |
| CC1CCN(C(=O)c2cnn3c(-c4ccco4)ccnc23)CC1 | -8.7% |
| Cc1nn(C)cc1-c1cc(C(F)(F)F)nc(NC2CCCCC2)n1 | -9.44% |
| Cc1nn(C)cc1-c1cc(C(F)(F)F)nc(NC2CCN(C)CC2)n1 | -4.19% |
| Cc1nn(C)cc1S(=O)(=O)NCC(C)Cn1cc(Cl)cn1 (centres undefined) | 3.54% |
| Cc1noc(C)c1S(=O)(=O)N(C)Cc1nn(C)c(Cl)c1Cl | 24.3% |
| Cc1c(S(=O)(=O)N(CCc2ccccc2)Cc2ccn(C)n2)cnn1C | -8.56% |
| Cc1nn(C)c(C)c1S(=O)(=O)N(C)Cc1nn(C)c(Cl)c1Cl | 18.2% |
| O=C(Cn1cc(C(=O)O)cn1)Nc1c(Cl)cccc1Cl | -5.99% |
| CCn1ccc(-c2cc(C(=O)O)n3ncc(Br)c3n2)n1 | -11.6% |
| CCn1ncc2c(C(F)(F)F)cc(-c3ccn(C)n3)nc21 | -8.47% |
| CCCn1ncc2c(C(=O)NC(C)Cn3cccn3)cc(C3CC3)nc21 (centres undefined) | -13.1% |
| COC(=O)CNC(=O)c1cc(-c2ccccc2)nc2ncnn12 | -0.256% |
| CCOc1ccc2oc(-c3cn(C)nc3C)c(O)c(=O)c2c1 | 32.5% |

| SMILES | cytotoxicity at 70.5 h |
| --- | --- |
| COc1ccc2oc(-c3cn(C)nc3C)c(O)c(=O)c2c1 | -1.34% |
| CC(=O)c1c(C)nn(S(=O)(=O)c2ccc(F)cc2)c1C | 1.95% |
| c1cncc(CNc2ccccc2-c2nn[nH]n2)c1 | -5.95% |
| COc1ccc(-c2cc(C3(O)CCOC(C)(C)C3)on2)cc1 (centres undefined) | -11.5% |
| O=C1N[C@H]2OCCC[C@H]2[C@H](c2ccccc2)N1 | -12.3% |
| c1ccc2c3c([nH]c2c1)C(c1nn[nH]n1)CCC3 (centres undefined) | -10.7% |
| Brc1ccc2[nH]c3c(c2c1)CCCC3c1nn[nH]n1 (centres undefined) | -14.8% |
| COc1c(Br)c(CC2CC(CO)=NO2)c(OC)c2c1OCO2 (centres undefined) | -9.88% |
| COc1cc(CC2CC(C(N)=O)=NO2)cc2c1OCO2 (centres undefined) | -7.88% |
| Cc1cc(N)n(-c2ccc3nnc(C)n3n2)n1 | 6.51% |
| COc1ccc(C2=NOC(CC#N)C2)cc1 (centres undefined) | -1.51% |
| COc1ccc(C2=NOC(CO)C2)cc1 (centres undefined) | -14.5% |
| CNc1[nH]nc(N)c1C(=O)Nc1ccccc1 | 2.68% |
| Cn1ncc2c1NC(=O)CC2c1ccc(F)cc1 (centres undefined) | 1.96% |
| COc1ccccc1CNC(=O)c1[nH]ncc1Cl | 6.24% |
| CC(=O)Oc1ccnc(C(F)(F)F)c1C(C)=O | -3.5% |
| COc1cc(-c2n[nH]c(CC#N)n2)cc(OC)c1OC | 51.6% |
| COC(=O)CCn1ccc(=O)c2ccc(OC)cc21 | 19.7% |
| O=C(NCCCO)c1nnsc1-c1ccc(Cl)cc1 | -13.1% |
| Cc1ncc2c(n1)CCCC2NC(=O)c1ccccc1C(=O)O (centres undefined) | -13.5% |
| O=C(c1cc(-c2cccs2)cs1)N1CCSCC1 | -5.68% |
| O=C(NCC1CCCO1)c1cc(Sc2ncccn2)ccn1 (centres undefined) | 24.8% |
| Cc1cccc(C(=O)Nc2c(C(=O)N(C)C)nn(C)c2C)c1 | -3.25% |

| SMILES | cytotoxicity at 70.5 h |
| --- | --- |
| Cc1ccc(C(=O)Nc2c(C(=O)N(C)C)nn(C)c2C)cc1C | -4.41% |
| Cc1nn(C)cc1C(=O)NCc1csc(C2CC2)n1 | 18.9% |
| CCn1cc(CCC(=O)NCc2csc(C3CC3)n2)c(C)n1 | -11.7% |
| CCn1cc(C(=O)NCc2csc(C3CC3)n2)c(C)n1 | -3.62% |
| Cc1ccc2c(cnn2CCC(=O)NCc2csc(C3CC3)n2)c1 | 22.8% |
| Cn1ncc(C(=O)N2CCN(CCS(C)(=O)=O)CC2)c1Cl | 18.4% |
| O=C(c1ccc(-c2ccc(O)nc2)s1)N1CCCCCC1 | -10.4% |
| Cc1nc(Nc2nnc(C)s2)cc(C2CCCN2C2CCCC2)n1 (centres undefined) | -5.26% |
| Cc1cnc(N)c(C(=O)C2CCN(C(=O)C3CCC3)CC2)c1 | 11.3% |
| O=C(c1ccncc1)N1CCCC(c2ncncc2-c2ccncc2)C1 (centres undefined) | -4.43% |
| Cc1cc(-c2cnc(N3CCC(O)CC3)nc2-c2cccnc2C)on1 | 8.43% |
| Cc1cc(-c2cnc(N3CCCCCC3)nc2-c2cccnc2C)on1 | -12.8% |
| COc1cc(C2Nc3cc(Cl)ccc3C3=NCCN32)ccc1O (centres undefined) | -8.38% |
| NC(=O)C1CCN(c2ncc(-c3cnccn3)c([C@H]3CCCO3)n2)CC1 | -11.5% |
| CNc1cncc(C2CCCN2c2cc(C)ncn2)n1 (centres undefined) | 17.1% |
| CC(=O)N1CCCC(c2ccc(N3CCN(C)CC3)cn2)C1 (centres undefined) | -3.54% |
| COc1cccc(CN2CCC(c3nn(CCN)c4nccnc34)C2)c1 (centres undefined) | 17% |
| CN1CCCCC1c1ncc2c(n1)CCN(Cc1ccc(Cl)c(F)c1)C2 (centres undefined) | -3.53% |
| O=C(C1CCCO1)N1CCC(O)(Cn2ccc3ccncc32)CC1 (centres undefined) | 15.9% |
| Cc1cc2c(=O)n3c(nc2s1)CCN(C(=O)c1ccnn1C(C)C)CC3 | -7.45% |
| Cc1cc2c(=O)n3c(nc2s1)CCN(C(=O)c1c(C)noc1C)CC3 | -3.89% |
| C[C@@H]1C[C@H](C(F)(F)F)n2nc(C3CCN(S(C)(=O)=O)CC3)cc2N1 | -2.94% |
| C[C@@H]1C[C@H](C(F)(F)F)n2nc(C3CCN(S(=O)(=O)N(C)C)CC3)cc2N1 | -5.83% |

| SMILES | cytotoxicity at 70.5 h |
| --- | --- |
| Cc1ccc(S(=O)(=O)N2C[C@H]3C[C@H](NC(=O)c4cnn(C)c4)[C@H]3C2)cc1 | 33.7% |
| O=S1(=O)NC(C2CCN(Cc3ccncc3)CC2)Nc2ccccc21 (centres undefined) | 23.9% |
| Cc1cc(-c2cnc(N3CCNC(=O)C3)nc2-c2ccoc2C)on1 | -6.66% |
| CC(=O)N1CCCC(c2ccc(Cc3ccccc3)cn2)C1 (centres undefined) | 20% |
| O=C(c1ncccn1)N1C[C@@H]2CC[C@H](Oc3cccc(F)c3)[C@@H]2C1 | -6.95% |
| O=C(c1cccnn1)N1C[C@@H]2CC[C@H](Oc3cccc(F)c3)[C@@H]2C1 | 14.9% |
| O=c1c2sccc2nc2n1CCN(Cc1ccc(F)c(F)c1)CC2 | -9.83% |
| C[C@H](N)Cn1nc(-c2cccs2)oc1=O | -1.53% |
| O=C(CN1CCCC1=O)N1CCC(O)(Cn2ccc3ccncc32)CC1 | -5.71% |
| COc1cccc(CN2CCc3nc4ccsc4c(=O)n3CC2)c1 | 12.2% |
| CCOc1ccccc1CN1CCc2nc3ccsc3c(=O)n2CC1 | -7.1% |
| Cc1nc(C2(O)CCCNCC2)sc1CCOc1ccc(F)c(F)c1 (centres undefined) | -4.26% |
| COCC1CC2(CCN(C(=O)c3cncc(C)c3)CC2)CO1 (centres undefined) | 9.94% |
| O=C(c1ccccn1)N1CCCC2(CCN(c3ccsc3)C2=O)C1 (centres undefined) | 12.8% |
| Cc1ccc(C(=O)N2CCC3(CCN(c4ccsc4)C3=O)C2)cn1 (centres undefined) | 6.79% |
| CN(C)S(=O)(=O)N1CCC2(CC1)CC(Oc1ccccn1)CO2 (centres undefined) | 0.296% |
| COCC1CC2(CCN(C(=O)c3cnc4ccccc4c3)CC2)CO1 (centres undefined) | -0.655% |
| O=C(c1ccncc1)N1CCCC2(CCN(c3cccnc3)C2=O)C1 (centres undefined) | 0.0433% |
| CCOc1cc(CN[C@@H]2COC[C@H]2Cc2cc(C)no2)ccc1O | -2.12% |
| OC1CCN(Cc2ccnc(-c3cccnc3)n2)CC1 | -7.13% |
| OC1CCCN(Cc2ccnc(-c3cccnc3)n2)C1 (centres undefined) | -4.64% |
| COC(=O)c1ccc(CN[C@@H]2COC[C@H]2Cc2cc(C)no2)cc1 | -4.83% |
